From BindingDB's records for doi:10.1007/s00044-010-9428-9 (n/a, 2011)

molecular target: T1, Peroxisome proliferator-activated receptor gamma (Homo sapiens, UniProt P37231); test: Transactivation activity at PPARgamma (unknown origin)
T1 sequence (P37231 whole entry): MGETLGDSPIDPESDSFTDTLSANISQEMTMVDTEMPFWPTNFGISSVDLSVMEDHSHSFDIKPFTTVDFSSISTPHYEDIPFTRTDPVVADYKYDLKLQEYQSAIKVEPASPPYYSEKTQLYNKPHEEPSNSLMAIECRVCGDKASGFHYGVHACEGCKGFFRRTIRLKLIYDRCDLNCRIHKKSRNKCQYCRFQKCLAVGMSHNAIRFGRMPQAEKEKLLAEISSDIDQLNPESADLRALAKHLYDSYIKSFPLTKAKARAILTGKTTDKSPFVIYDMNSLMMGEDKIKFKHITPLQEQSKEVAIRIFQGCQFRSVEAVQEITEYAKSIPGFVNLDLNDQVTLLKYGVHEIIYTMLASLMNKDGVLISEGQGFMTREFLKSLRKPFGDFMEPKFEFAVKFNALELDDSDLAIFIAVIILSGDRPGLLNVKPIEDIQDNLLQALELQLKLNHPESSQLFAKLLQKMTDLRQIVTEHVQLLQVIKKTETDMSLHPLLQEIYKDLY

Structure (SMILES) | EC50 [nM]
C/C(=N\OCCOc1ccc(Cc2sc(=O)[nH]c2O)cc1)c1ccc(-c2ccncc2)cc1 [5-(4-{2-[1-(4-Pyridin-4-yl-phenyl)-eth-(E)-ylideneaminooxy]-ethoxy}-benzyl)-thiazolidine-2,4-dione] | 1600
CC/C(=N\OCCOc1ccc(Cc2sc(=O)[nH]c2O)cc1)c1ccc(-c2ccccc2)cc1 [5-(4-{2-[1-Biphenyl-4-yl-prop-(E)-ylideneaminooxy]-ethoxy}-benzyl)-thiazolidine-2,4-dione] | 1600
C/C(=N\OCCOc1ccc(Cc2sc(=O)[nH]c2O)cc1)c1ccccn1 [5-(4-{2-[1-Pyridin-2-yl-eth-(E)-ylideneaminooxy]-ethoxy}-benzyl)-thiazolidine-2,4-dione] | 2800
C/C(=N\OCCOc1ccc(Cc2sc(=O)[nH]c2O)cc1)c1cccnc1 [5-(4-{2-[1-Pyridin-3-yl-eth-(E)-ylideneaminooxy]-ethoxy}-benzyl)-thiazolidine-2,4-dione] | 2800

molecular target: T1, Peroxisome proliferator-activated receptor gamma; test: Transactivation activity at Homo sapiens (human) PPARgamma

Structure (SMILES) | EC50 [nM]
O=c1[nH]c(O)c(Cc2ccc3c(c2)CC[C@H](Cc2ccccc2)O3)s1 [5-((R)-2-Benzyl-chroman-6-ylmethyl)-thiazolidine-2,4-dione] | 1000
CCCc1cc(Oc2ccccc2)ccc1OCCCCOc1ccc(-c2sc(=O)[nH]c2O)cc1 [5-{4-[4-(4-Phenoxy-2-propyl-phenoxy)-butoxy]-phenyl}-thiazolidine-2,4-dione] | 1000
